# In ChEMBL document CHEMBL3885861, “Open TG-GATES”:
# Organism: Rattus norvegicus
# Test: Open TG-GATES - Regimen: Single
# Format: toxicity, organism-based, Sprague-Dawley
# Parameters: regimen Single, gender Male, age 6 weeks
# Details: in vivo, po, route gavage; for Bas / Eos / Fbg / Hb / Lym / MCH / MCHC / MCV / Mono / Neu / RBC / Ret / WBC / APTT: tissue Blood; for KIDNEY_L / KIDNEY_R / KIDNEY_TOTAL: tissue Kidney; for LIVER: tissue Liver; for ALP / ALT / AST / CRE / Ca / Cl / DBIL / GLC / IP / K / LDH / Na / PL / RALB / TBIL / TC / TG / TP / gamma-GTP: tissue Plasma
# [1] = 75 mg/kg, 3 h, dose level Middle
# [2] = 75 mg/kg, 6 h, dose level Middle
# [3] = 75 mg/kg, 9 h, dose level Middle
# [4] = 75 mg/kg, 24 h, dose level Middle
# [5] = 250 mg/kg, 3 h, dose level High
# [6] = 250 mg/kg, 6 h, dose level High
# [7] = 250 mg/kg, 9 h, dose level High
# [8] = 250 mg/kg, 24 h, dose level High
smiles,measurement,setting,value
O=C1CN(/N=C/c2ccc(-c3ccc([N+](=O)[O-])cc3)o2)C(O)=N1 [DANTROLENE],Bas,[1],0%
same,Eos,[1],1%
same,Fbg,[1],217.6 mg/dL
same,Hb,[1],14.2 g/dL
same,Lym,[1],70.4%
same,MCH,[1],22.7 pg
same,MCHC,[1],34.1%
same,MCV,[1],66.7 fL
same,Mono,[1],8%
same,Neu,[1],20.6%
same,RBC,[1],623.6 x10_4/ul
same,Ret,[1],10.8%
same,WBC,[1],82.6 x10_2/uL
same,KIDNEY_L,[1],0.9 g
same,KIDNEY_R,[1],1 g
same,KIDNEY_TOTAL,[1],1.9 g
same,LIVER,[1],9.5 g
same,ALP,[1],747.2 IU/L
same,ALT,[1],32.4 IU/L
same,AST,[1],60.2 IU/L
same,CRE,[1],0.5 mg/dL
same,Ca,[1],10.3 mg/dL
same,Cl,[1],101.4 meq/L
same,DBIL,[1],0.06 mg/dL
same,GLC,[1],213.4 mg/dL
same,IP,[1],11.1 mg/dL
same,K,[1],4.7 meq/L
same,LDH,[1],105.8 IU/L
same,Na,[1],138 meq/L
same,PL,[1],148.2 mg/dL
same,RALB,[1],3.9 g/dL
same,TBIL,[1],0.3 mg/dL
same,TC,[1],85.4 mg/dL
same,TG,[1],41.4 mg/dL
same,TP,[1],5.7 g/dL
same,gamma-GTP,[1],1.8 IU/L
same,TERMINAL_BW,[2],191.2 g
same,APTT,[2],17 s
same,Bas,[2],0%
same,Eos,[2],1%
same,Fbg,[2],220.6 mg/dL
same,Hb,[2],14.6 g/dL
same,Lym,[2],73.2%
same,MCH,[2],22.4 pg
same,MCHC,[2],34.3%
same,MCV,[2],65.2 fL
same,Mono,[2],8.6%
same,Neu,[2],17.2%
same,RBC,[2],650.4 x10_4/ul
same,Ret,[2],12.7%
same,WBC,[2],82.9 x10_2/uL
same,KIDNEY_L,[2],0.9 g
same,KIDNEY_R,[2],0.9 g
same,KIDNEY_TOTAL,[2],1.9 g
same,LIVER,[2],9 g
same,ALP,[2],749.6 IU/L
same,ALT,[2],34 IU/L
same,AST,[2],64.2 IU/L
same,CRE,[2],0.5 mg/dL
same,Ca,[2],10.3 mg/dL
same,Cl,[2],102.8 meq/L
same,DBIL,[2],0.06 mg/dL
same,GLC,[2],211.4 mg/dL
same,IP,[2],9.6 mg/dL
same,K,[2],4.6 meq/L
same,LDH,[2],102 IU/L
same,Na,[2],138.8 meq/L
same,PL,[2],141.8 mg/dL
same,RALB,[2],3.8 g/dL
same,TBIL,[2],0.3 mg/dL
same,TC,[2],80.4 mg/dL
same,TG,[2],30.4 mg/dL
same,TP,[2],5.6 g/dL
same,gamma-GTP,[2],1.6 IU/L
same,TERMINAL_BW,[3],191.7 g
same,APTT,[3],16.9 s
same,Bas,[3],0%
same,Eos,[3],1%
same,Fbg,[3],217.8 mg/dL
same,Hb,[3],14.3 g/dL
same,Lym,[3],78.2%
same,MCH,[3],21.6 pg
same,MCHC,[3],32.9%
same,MCV,[3],65.6 fL
same,Mono,[3],7.4%
same,RBC,[3],663.8 x10_4/ul
same,Ret,[3],9.8%
same,WBC,[3],74.6 x10_2/uL
same,KIDNEY_L,[3],0.9 g
same,KIDNEY_R,[3],0.9 g
same,KIDNEY_TOTAL,[3],1.8 g
same,LIVER,[3],8.2 g
same,ALP,[3],710.6 IU/L
same,ALT,[3],23.2 IU/L
same,AST,[3],53 IU/L
same,CRE,[3],0.5 mg/dL
same,Ca,[3],10.4 mg/dL
same,Cl,[3],105.2 meq/L
same,DBIL,[3],0.054 mg/dL
same,GLC,[3],205.8 mg/dL
same,IP,[3],9.5 mg/dL
same,K,[3],5.2 meq/L
same,LDH,[3],103.2 IU/L
same,Na,[3],138.2 meq/L
same,PL,[3],148 mg/dL
same,RALB,[3],3.8 g/dL
same,TBIL,[3],0.4 mg/dL
same,TC,[3],87.4 mg/dL
same,TG,[3],26.4 mg/dL
same,TP,[3],5.5 g/dL
same,gamma-GTP,[3],1.6 IU/L
same,TERMINAL_BW,[4],190.1 g
same,APTT,[4],16.9 s
same,Bas,[4],0%
same,Eos,[4],0.8%
same,Fbg,[4],202.2 mg/dL
same,Hb,[4],13.8 g/dL
same,Lym,[4],86.2%
same,MCH,[4],21.9 pg
same,MCHC,[4],33.6%
same,MCV,[4],65.3 fL
same,Mono,[4],7.2%
same,Neu,[4],6.2%
same,RBC,[4],631 x10_4/ul
same,Ret,[4],11.5%
same,WBC,[4],86.1 x10_2/uL
same,KIDNEY_L,[4],0.9 g
same,KIDNEY_R,[4],0.9 g
same,KIDNEY_TOTAL,[4],1.9 g
same,LIVER,[4],9 g
same,ALP,[4],1061.6 IU/L
same,ALT,[4],32.8 IU/L
same,AST,[4],56.2 IU/L
same,CRE,[4],0.5 mg/dL
same,Ca,[4],10.9 mg/dL
same,Cl,[4],105 meq/L
same,DBIL,[4],0.018 mg/dL
same,GLC,[4],189 mg/dL
same,IP,[4],7.7 mg/dL
same,K,[4],4.3 meq/L
same,LDH,[4],104.6 IU/L
same,Na,[4],141.4 meq/L
same,PL,[4],147.8 mg/dL
same,RALB,[4],3.9 g/dL
same,TBIL,[4],0.4 mg/dL
same,TC,[4],83.6 mg/dL
same,TG,[4],73.2 mg/dL
same,TP,[4],5.7 g/dL
same,gamma-GTP,[4],1 IU/L
same,TERMINAL_BW,[5],193.5 g
same,APTT,[5],16.6 s
same,Bas,[5],0%
same,Eos,[5],1.4%
same,Fbg,[5],218.2 mg/dL
same,Hb,[5],14.5 g/dL
same,Lym,[5],76.6%
same,MCH,[5],22 pg
same,MCHC,[5],34.2%
same,MCV,[5],64.3 fL
same,Mono,[5],6.8%
same,Neu,[5],15%
same,RBC,[5],658 x10_4/ul
same,Ret,[5],11.7%
same,WBC,[5],67.2 x10_2/uL
same,KIDNEY_L,[5],0.9 g
same,KIDNEY_R,[5],0.9 g
same,KIDNEY_TOTAL,[5],1.9 g
same,LIVER,[5],9.3 g
same,ALP,[5],867.8 IU/L
same,ALT,[5],35.6 IU/L
same,AST,[5],68.8 IU/L
same,CRE,[5],0.5 mg/dL
same,Ca,[5],10.4 mg/dL
same,Cl,[5],100.6 meq/L
same,DBIL,[5],0.056 mg/dL
same,GLC,[5],223.4 mg/dL
same,IP,[5],10.3 mg/dL
same,K,[5],4.5 meq/L
same,LDH,[5],100.4 IU/L
same,Na,[5],138.4 meq/L
same,PL,[5],142 mg/dL
same,RALB,[5],3.9 g/dL
same,TBIL,[5],0.3 mg/dL
same,TC,[5],81 mg/dL
same,TG,[5],41.8 mg/dL
same,TP,[5],5.7 g/dL
same,gamma-GTP,[5],2.2 IU/L
same,TERMINAL_BW,[6],189.5 g
same,APTT,[6],17.8 s
same,Bas,[6],0%
same,Eos,[6],0.8%
same,Fbg,[6],212.2 mg/dL
same,Hb,[6],14.7 g/dL
same,Lym,[6],68.4%
same,MCH,[6],22.4 pg
same,MCHC,[6],34.4%
same,MCV,[6],65.2 fL
same,Mono,[6],6.2%
same,Neu,[6],24.6%
same,RBC,[6],656.8 x10_4/ul
same,Ret,[6],12.9%
same,WBC,[6],66.9 x10_2/uL
same,KIDNEY_L,[6],0.9 g
same,KIDNEY_R,[6],0.9 g
same,KIDNEY_TOTAL,[6],1.8 g
same,LIVER,[6],8.3 g
same,ALP,[6],725.6 IU/L
same,ALT,[6],29.6 IU/L
same,AST,[6],58.6 IU/L
same,CRE,[6],0.5 mg/dL
same,Ca,[6],10.3 mg/dL
same,Cl,[6],102.4 meq/L
same,DBIL,[6],0.086 mg/dL
same,GLC,[6],219.6 mg/dL
same,IP,[6],9 mg/dL
same,K,[6],4.4 meq/L
same,LDH,[6],110.6 IU/L
same,Na,[6],137.6 meq/L
same,PL,[6],133.4 mg/dL
same,RALB,[6],3.9 g/dL
same,TBIL,[6],0.3 mg/dL
same,TC,[6],79.2 mg/dL
same,TG,[6],19.2 mg/dL
same,TP,[6],5.6 g/dL
same,gamma-GTP,[6],1.2 IU/L
same,TERMINAL_BW,[7],185.8 g
same,APTT,[7],19.1 s
same,Bas,[7],0%
same,Eos,[7],0.2%
same,Fbg,[7],216.8 mg/dL
same,Hb,[7],14.5 g/dL
same,Lym,[7],77.8%
same,MCH,[7],21.6 pg
same,MCHC,[7],32.9%
same,MCV,[7],65.6 fL
same,Mono,[7],5.8%
same,Neu,[7],15.8%
same,RBC,[7],669.4 x10_4/ul
same,Ret,[7],12.3%
same,WBC,[7],55.5 x10_2/uL
same,KIDNEY_L,[7],0.9 g
same,KIDNEY_R,[7],0.9 g
same,KIDNEY_TOTAL,[7],1.8 g
same,LIVER,[7],8 g
same,ALP,[7],664.6 IU/L
same,ALT,[7],21.4 IU/L
same,AST,[7],50.4 IU/L
same,CRE,[7],0.6 mg/dL
same,Ca,[7],10.5 mg/dL
same,Cl,[7],103.6 meq/L
same,DBIL,[7],0.064 mg/dL
same,GLC,[7],212.2 mg/dL
same,IP,[7],8.9 mg/dL
same,K,[7],4.9 meq/L
same,LDH,[7],89.8 IU/L
same,Na,[7],136.8 meq/L
same,PL,[7],144.2 mg/dL
same,RALB,[7],3.8 g/dL
same,TBIL,[7],0.4 mg/dL
same,TC,[7],90.2 mg/dL
same,TG,[7],17.2 mg/dL
same,TP,[7],5.7 g/dL
same,gamma-GTP,[7],1.4 IU/L
same,TERMINAL_BW,[8],185 g
same,APTT,[8],17.5 s
same,Bas,[8],0%
same,Eos,[8],0.8%
same,Fbg,[8],207 mg/dL
same,Hb,[8],14.7 g/dL
same,Lym,[8],87.6%
same,MCH,[8],21.8 pg
same,MCHC,[8],33.4%
same,MCV,[8],65.3 fL
same,Mono,[8],5.8%
same,Neu,[8],5.8%
same,RBC,[8],675 x10_4/ul
same,Ret,[8],13%
same,WBC,[8],72.5 x10_2/uL
same,KIDNEY_L,[8],0.9 g
same,KIDNEY_R,[8],0.9 g
same,KIDNEY_TOTAL,[8],1.9 g
same,LIVER,[8],8.6 g
same,ALP,[8],722.6 IU/L
same,ALT,[8],24.6 IU/L
same,AST,[8],46.2 IU/L
same,CRE,[8],0.5 mg/dL
same,Ca,[8],11.1 mg/dL
same,Cl,[8],103.4 meq/L
same,DBIL,[8],0.022 mg/dL
same,GLC,[8],191.2 mg/dL
same,IP,[8],9.1 mg/dL
same,K,[8],4.8 meq/L
same,LDH,[8],102.8 IU/L
same,Na,[8],140.6 meq/L
same,PL,[8],136 mg/dL
same,RALB,[8],4 g/dL
same,TBIL,[8],0.3 mg/dL
same,TC,[8],79.6 mg/dL
same,TG,[8],21.8 mg/dL
same,TP,[8],5.7 g/dL
same,gamma-GTP,[8],1.6 IU/L
